The test system of series [1] is Herpes Simplex Virus type 2 strain G (No. VR-734 ATCC). Nature of the series: Antiviral activity, virus cytopathogenic action in Vero cells. The note with it: 48 hours. Also on record: key: 0: CPA (cytopathogenic action) is not detected; 1: up to 25% virus-infected monolayer; from 25% to 50%; 3: from 50% to 75%; 4: from 75% to 100%. The class given is cell-based. A general note: Damage to the host cells serves as the signal in cytopathic effect assays.

Where [2] appears, read: HSV-2, virus dose 1, concentration 0.1 μM.
Setting [3] is: HSV-2, virus dose 1, concentration 1 μM.
Where [4] appears, read: HSV-2, virus dose 1, concentration 10 μM.
The mark [5] stands for this setting: HSV-2, virus dose 10, concentration 0.1 μM.
[6] abbreviates: HSV-2, virus dose 10, concentration 1 μM.
[7] abbreviates: HSV-2, virus dose 10, concentration 10 μM.
Setting [8] is: HSV-2, virus dose 100, concentration 0.1 μM.
Where [9] appears, read: HSV-2, virus dose 100, concentration 1 μM.
[10] abbreviates: HSV-2, virus dose 100, concentration 10 μM.

Consider five compounds from patent publication US9605013B2, “Derivatives of hemin with antibacterial and antiviral activity” (OBSCHESTVO S OGRANICHENNOI OTVETSTVENNOSTIYU …, priority 2011, dated 2017).

“6,7-bis-(Amide N^α-Glycyl)-Protohemin (IX) [IV]”: in the series “Water solubility”, the water solubility result is “water-insoluble”. For the same compound, the “manifestation of the virus CPA” value in series [1] (setting [2]) is recorded as 1 (up to 25% virus-infected monolayer); in series [1] (setting [3]), 0.5 scores; in series [1] (setting [4]) it was 0^1; in series [1] (setting [5]), 2 (from 25% to 50%); in series [1] (setting [6]) it was 2 (from 25% to 50%); in series [1] (setting [7]), 0^1. Also, the results for the “manifestation of the virus CPA” value in series [1] (setting [8]), in series [1] (setting [9]) and in series [1] (setting [10]) were 3 (from 50% to 75%), 3 (from 50% to 75%) and 0^1, respectively.

Regarding “6,7-bis-[(Diamide N^α-L-Arginyl)-L-glutamyl]-Protohemin (IX)”, the water solubility entry in “Water solubility” is given as “water-soluble”. The “manifestation of the virus CPA” value in series [1] (setting [2]) is reported as 1 (up to 25% virus-infected monolayer); in series [1] (setting [3]), 0.5 scores; in series [1] (setting [4]), 0^1; in series [1] (setting [5]), 2 (from 25% to 50%); in series [1] (setting [6]), 2 (from 25% to 50%); in series [1] (setting [7]), 1^1 (up to 25% virus-infected monolayer). The “manifestation of the virus CPA” value in series [1] (setting [8]), in series [1] (setting [9]) and in series [1] (setting [10]) was 3 (from 50% to 75%) in each case.

Take `C=CC1=C(C)c2cc3[n-]c(cc4[n-]c(cc5nc(cc1n2)C(C)=C5C=C)c(C)c4CCC(=O)N[C@@H](CCCNC(=N)N)C(N)=O)c(CCC(=O)N[C@@H](CCCNC(=N)N)C(N)=O)c3C.[Cl-].[Fe+3]` [II, 6,7-bis-(Amide N^α-Arginyl)-Protohemin (IX)]: the water solubility entry in the series “Water solubility” is reported as “water-soluble”. For the same compound, the “manifestation of the virus CPA” value in series [1] (setting [2]) was 1 (up to 25% virus-infected monolayer); in series [1] (setting [3]), 0.5 scores; in series [1] (setting [4]) it was 0^1; in series [1] (setting [5]), 1.5 scores; in series [1] (setting [6]) it was 2 (from 25% to 50%); in series [1] (setting [7]), 1^1 (up to 25% virus-infected monolayer). Moreover, the “manifestation of the virus CPA” value in series [1] (setting [8]), in series [1] (setting [9]) and in series [1] (setting [10]) was 3 (from 50% to 75%) throughout.

Turning to `C=CC1=C(C)c2cc3[n-]c(cc4[n-]c(cc5nc(cc1n2)C(C)=C5C=C)c(C)c4CCC(=O)N[C@@H](CO)C(N)=O)c(CCC(=O)N[C@@H](CO)C(N)=O)c3C.[Cl-].[Fe+3]` [V, 6,7-bis-(Amide N^α-Seryl)-Protohemin (IX)], the water solubility entry in “Water solubility” was “water-insoluble”. Further, the “manifestation of the virus CPA” value is on record as 1 (up to 25% virus-infected monolayer) in series [1] (setting [2]); 0.5 scores in series [1] (setting [3]); 0^1 in series [1] (setting [4]); 2 (from 25% to 50%) in series [1] (setting [5]); 2 (from 25% to 50%) in series [1] (setting [6]); 0^1 in series [1] (setting [7]). Moreover, the figures for the “manifestation of the virus CPA” value in series [1] (setting [8]), in series [1] (setting [9]) and in series [1] (setting [10]) were 3 (from 50% to 75%), 3 (from 50% to 75%) and 2^1 (from 25% to 50%), respectively.

As for `C=CC1=C(C)c2cc3[n-]c(cc4[n-]c(cc5nc(cc1n2)C(C)=C5C=C)c(C)c4CCC(=O)N[C@@H](CO)C(=O)O)c(CCC(=O)N[C@@H](CO)C(=O)O)c3C.[Cl-].[Fe+3]` [VI, 6,7-bis-(N^α-Seryl]-Protohemin (IX)], the “manifestation of the virus CPA” value in series [1] (setting [2]) is recorded as 1 (up to 25% virus-infected monolayer); in series [1] (setting [3]) it was 1 (up to 25% virus-infected monolayer); in series [1] (setting [4]), 0^1; in series [1] (setting [5]), 2 (from 25% to 50%); in series [1] (setting [6]), 2 (from 25% to 50%); in series [1] (setting [7]) it was 0^1. The “manifestation of the virus CPA” value is recorded as 3 (from 50% to 75%) in series [1] (setting [8]), 3 (from 50% to 75%) in series [1] (setting [9]) and 2^1 (from 25% to 50%) in series [1] (setting [10]).
